In patent US20260193257A1, “BICYCLIC DERIVATIVES” (Elanco Tiergesundheit AG, priority 2018, published 2026):

Key:
[1] = tested on: H. contortus (H.c.) larvae; assay: Ruminant gastrointestinal (H. contortus) larval motility assay; conditions: Haemonchus contortus, read-out: EC50 (motility inhibition)
Experimental: H.c. eggs isolated from lamb fecal matter are allowed to hatch overnight. Test compounds are diluted in DMSO and added to a 96-well plate containing appropriate media. H.c. larvae are added to each well and plates are incubated for the desired time(s). Motility is assessed using an LCD camera imaging system. Percent motility inhibition values are generated relative to the average of the DMSO-only wells.

[2] = tested on: D. immitis microfilariae; assay: Dog heart worm microfilariae motility assay; assay type: cell-based; conditions: Dirofilaria immitis, read-out: EC50 (motility inhibition)
[3] = tested on: T. colubriformis; assay: Gastro intestinal nematodes, infected jird model (T. colubriformis); conditions: Jirds (Meriones unguiculatus), oral, Day 6 after infection, dose between 1×3 mg/kg and 1×32 mg/kg, worms recovered from small intestine three days after treatment
Experimental: Jirds (Meriones unguiculatus), are artificially infected by gavage with third instar larvae each of T. colubriformis and H. contortus. Then treated orally with the test compound formulated in eg DMSO/PEG 2/1, on Day 6 after infection at a dose in a range between 1×3 mg/kg up to 1×32 mg/kg. Three days after treatment, gerbils are euthanized and dissected to recover H. contortus from stomach and T. colubriformis from the small intestine. Efficacy is expressed as a % reduction in worm numbers in comparison with a placebo treated group, using the Abbot's formula.

[4] = tested on: L. sigmodontis; assay: L.s. model in mice; conditions: oral gavage, dose between 1×3 mg/kg and 5×32 mg/kg, necropsy 5 weeks after infection
Experimental: Model Mice, injected subcutaneously with infective L. sigmodontis larvae, were subsequently treated with the test article formulated in eg DMSO/PEG 2/1, by oral gavage at a dose in a range between 1×3 mg/kg up to 5×32 mg/kg (one dose per day for 5 consecutive days). At necropsy 5 weeks after infection, efficacy is calculated by counting developed larvae vs. untreated animals using Abbot's formula.

SMILES | EC50 [1] [µg/mL] | EC50 [2] [µg/mL] | Efficacy against Tc (% reduction in worm numbers vs placebo, Abbot's formula) [3] [%] | Efficacy against Ls (developed larvae vs. untreated animals, Abbot's formula) [4] [%]
O=C(Nc1cnc2c(-c3cc(Cl)cc(Cl)c3)cccc2c1C1CC1)[C@H]1CCOc2ccccc21 [Example 1.6, (4S)-N-[4-cyclopropyl-8-(3,5-dichlorophenyl)-3-quinolyl]chromane-4-carboxamide] | < 1 | < 0.1 | – | –
CN(C)c1c(NC(=O)[C@@H]2CCOc3ccccc32)cnc2c(-c3cc(Cl)cc(Cl)c3)cccc12 [Example 1.1, (4R)—N-[8-(3,5-dichlorophenyl)-4-(dimethylamino)-3-quinolyl]chromane-4-carboxamide] | < 1 | < 0.1 | > 80 | –
CN(C)c1c(NC(=O)[C@H]2CCOc3ccccc32)cnc2c(-c3cccc(Cl)c3Cl)cccc12 [Example 1.9, (4S)-N-[8-(2,3-dichlorophenyl)-4-(dimethylamino)-3-quinolyl]chromane-4-carboxamide] | < 1 | < 0.1 | – | –
CN(C)c1c(NC(=O)[C@H]2CCCc3ccccc32)cnc2c(-c3cc(Cl)cc(Cl)c3)cccc12 [Example 1.4, (1S)-N-[8-(3,5-dichlorophenyl)-4-(dimethylamino)-3-quinolyl]tetralin-1-carboxamide] | < 1 | < 0.1 | – | > 80
CN(C)c1c(NC(=O)[C@@H]2CCOc3ccccc32)cnc2c(-c3cc(Cl)cc(Cl)c3)ccnc12 [Example 6.1, (4R)—N-[8-(3,5-dichlorophenyl)-4-(dimethylamino)-1,5-naphthyridin-3-yl]chromane-4-carboxamide] | < 1 | – | – | –
CN(C)c1c(NC(=O)[C@H]2CCOc3ccccc32)cnc2c(-c3cc(Cl)cc(C(F)(F)F)c3)cccc12 [Example 1.11, (4S)-N-[8-[3-chloro-5-(trifluoromethyl)phenyl]-4-(dimethylamino)-3-quinolyl]chromane-4-carboxamide] | < 1 | < 0.1 | – | –
CN(C)c1c(NC(=O)[C@@H]2CCCc3ccccc32)cnc2c(-c3cc(Cl)cc(Cl)c3)cccc12 [Example 1.3, (1R)-N-[8-(3,5-dichlorophenyl)-4-(dimethylamino)-3-quinolyl]tetralin-1-carboxamide] | – | < 0.1 | – | –
CON(C)c1c(NC(=O)[C@@H]2CCOc3ccccc32)cnc2c(-c3cc(Cl)cc(Cl)c3)cccc12 [Example 1.7, (4R)-N-[8-(3,5-dichlorophenyl)-4-[methoxy(methyl)amino]-3-quinolyl]chromane-4-carboxamide] | – | < 0.1 | – | –
CN(C)c1c(NC(=O)[C@@H]2CCOc3ccccc32)cnc2c(-c3cc(Cl)cc(Cl)c3)nccc12 [Example 4.2, (4R)-N-[8-(3,5-dichloro-dichlorophenyl)-4-(dimethylamino)-1,7-naphthyridin-3-yl]chromane-4-carboxamide] | < 1 | – | – | –
O=C(Nc1cnc2c(-c3cc(Cl)cc(Cl)c3)ccnc2c1N1CCOCC1)[C@H]1CCOc2ccccc21 [Example 6.3, (4S)-N-[8-(3,5-dichlorophenyl)-4-morpholino-1,5-naphthyridin-3-yl]chromane-4-carboxamide] | < 1 | < 0.1 | – | –
O=C(Nc1cnc2c(-c3cc(Cl)cc(Cl)c3)cccc2c1N1CCOCC1)[C@H]1CCOc2ccccc21 [Example 1.12, (4S)-N-[8-(3,5-dichlorophenyl)-4-morpholino-3-quinolyl]chromane-4-carboxamide] | < 1 | < 0.1 | – | –
CN(C)c1c(NC(=O)N[C@H]2CCOc3ccccc32)cnc2c(-c3cc(Cl)cc(Cl)c3)cccc12 [Example 7.1, 1-[(4S)-Chroman-4-yl]-3-[8-(3,5-dichlorophenyl)-4-(dimethylamino)-3-quinolyl]urea] | < 1 | – | – | –
CN(C)c1c(NC(=O)[C@H]2CCOc3ccccc32)cnc2c(-c3cc(Cl)cc(Cl)c3)ccnc12 [Example 6.2, (4S)-N-[8-(3,5-dichlorophenyl)-4-(dimethylamino)-1,5-naphthyridin-3-yl]chromane-4-carboxamide] | < 1 | < 0.1 | – | –
